Columns and labels:
OR10A6 = molecular target: T1, OR10A6 (Homo sapiens, UniProt Q8NH74); test: Luciferase reporter gene assay, OR10A6 expressed in HEK293 cells; type: cell-based; details: response to hexanoic acid; test substance added together with hexanoic acid; HEK293
T1 construct: expressed in transfected cells; host or cells: HEK293
T1 sequence (Q8NH74 1-314): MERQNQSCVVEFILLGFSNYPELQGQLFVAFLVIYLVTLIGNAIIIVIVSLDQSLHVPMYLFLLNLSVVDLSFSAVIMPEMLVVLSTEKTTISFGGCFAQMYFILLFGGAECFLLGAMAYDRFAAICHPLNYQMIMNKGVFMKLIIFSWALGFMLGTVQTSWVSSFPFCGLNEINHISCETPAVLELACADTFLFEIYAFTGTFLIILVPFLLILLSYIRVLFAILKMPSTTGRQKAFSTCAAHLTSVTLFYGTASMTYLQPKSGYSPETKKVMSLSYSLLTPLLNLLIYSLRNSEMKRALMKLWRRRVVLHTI
Experimental: Cloning of human olfactory receptors was performed based on the sequence information registered in GenBank, through PCR with human genomic DNA female (G1521: Promega) as a template. Each of the genes amplified through PCR was inserted into a pENTR vector (Invitrogen) according to an instruction manual. Then, the gene-inserted vector was digested with NotI and AscI, and the obtained fragments were inserted into NotI and AscI sites located downstream of the Flag-Rho tag sequence in the pME18S vector.
Each of the 350 types of human olfactory receptors was expressed in HEK293 cells. A reaction solution having a composition shown in Table 2 was prepared on a clean bench, and left to stand for 15 minutes. The solution was dispensed to each well of a 96-well plate (BD). Subsequently, […] cells (100 μL, 3×10^5 cells/cm^2) were seeded in each well and cultured for 24 hours in an incubator at 37° C. and under 5% CO2 conditions.
The olfactory receptor expressed in HEK293 cell was conjugated with cell-intrinsic Gas to activate adenylate cyclase, and thereby the level of intracellular cAMP was increased. For the measurement of the response to odor in this study, the luciferase reporter gene assay was used, in which an increase in the amount of intracellular cAMP was monitored by using the emission value originating from firefly luciferase gene (fluc2P-CRE-hygro) as an indicator. Furthermore, a gene product obtained by fusing renilla luciferase gene in the downstream of CMV promoter (hRluc-CMV) was simultaneously introduced, and this was used as an internal standard for correcting an error in the transgenesis efficiency or the number of cells. The medium was removed from the culture prepared in the above-described section 3) by using a Pipetman, and 75 μl of a solution containing an odor substance (1 mM hexanoic acid or 300 μM nonanoic acid) prepared in CD293 medium (Invitrogen) was added thereto. The cells were cultured for 4 hours in a CO2 incubator, and the luciferase gene was sufficiently expressed in the cells. For the measurement of luciferase activity, the measurement was carried out by using a Dual-Glo™ luciferase assay system (Promega) according to the operation manual of the product. A value calculated by dividing the emission value, derived from a firefly luciferase induced by the stimulation with an odor substance, by the emission value in cells that were not-stimulated with an odor substance, was designated as a fold increase, and used as an index of response intensity.
OR2W1, OR10A6, OR51E1, OR51I2, and OR51L1 were respectively expressed in HEK293 cells by the same method as that used in Example 1, and a luciferase assay was carried out. In the luciferase assay, hexanoic acid was used as the odorous substance, and test substances were added together with hexanoic acid. The response of the olfactory receptors to hexanoic acid was measured, and a decrease in the receptor response to the addition of test substances was evaluated.
The inhibition ratios of the receptor response to test substances were calculated as follows. The emission value (Y) obtained from the cells in which the same receptors were introduced but no odor stimulation was conducted, was subtracted from the emission value derived from firefly luciferase (X) induced by odor stimulation with hexanoic acid alone. Similarly, the emission value (Y) obtained from the cells in which no odor stimulation was conducted, was subtracted from the emission value (Z) caused by stimulation with a mixture of hexanoic acid and a test substance. By the following calculation formula, the inhibitory activity of the test substance to receptor response was calculated based on the increment of the emission value (X−Y) caused by stimulation of hexanoic acid alone. Multiple independent experiments were performed in duplicate, and the average of each experiment was obtained. Inhibition ratio (%)={1−(Z−Y)/(X−Y)}×100

[1] = Sensory evaluation test of hexanoic acid odor inhibition; type: in vivo; details: for Intensity of odor: hexanoic acid odor, malodor alone rated as 5, 0 to 10 points, test substance diluted 100 times with propylene glycol, three panelists; for Inhibition of hexanoic acid odor (in words): sensory test, test substance diluted 100 times with propylene glycol (FIG. 5, Table 4)
Experimental: (§1) Cotton balls were introduced into a glass bottle (Hakuyo Glass Co., Ltd. No. 11, capacity 110 ml), and hexanoic acid diluted 100 times with propylene glycol, nonanoic acid diluted 10 times with propylene glycol, or isovaleric acid diluted 1000 times with propylene glycol, as a malodor, and a test substance were added dropwise in an amount of […] to the cotton balls. The glass bottle was left to stand overnight at room temperature, and the odor molecules were sufficiently volatilized in the glass bottle. A sensory evaluation test was carried out by a panel of three panelists (5 panelists for isovaleric acid), and while the intensity of odor in the case of adding dropwise the malodor alone was rated as 5, the intensity of the malodor in the case of incorporating a test substance was evaluated on the basis of a system of 20 grades from 0 point to 10 points (0.5 points per grade).
Regarding the test substance, florhydral (Givaudan SA), bourgeonal (Givaudan SA), hydroxycitronellal (Givaudan SA, International Flavors & Fragrances, Inc., and the like), 4-isopropylcyclohexanecarbaldehyde (synthesized according to a method described in JP-A-2-188549), 4-(2-methoxyphenyl)-2-methyl-2-butanol (JP-A-9-111281), florosa (Givaudan SA), isocyclocitral (Givaudan SA, International Flavors & Fragrances, Inc., and the like), tripral (International Flavors & Fragrances, Inc.), and Pollenal II (Kao Corp.), which had been diluted 100 times with propylene glycol, were used for hexanoic acid; florhydral that had been diluted 10 times with propylene glycol was used for nonanoic acid; and florhydral that had been diluted 1000 times with propylene glycol was used for isovaleric acid.

[2] = Sensory evaluation test of isovaleric acid odor inhibition; type: in vivo; details: test substance diluted 1000 times with propylene glycol, 5 panelists (FIG. 7)
Experimental: as §1, with “grade). […]” for “grade).”

[3] = Sensory evaluation test of cresol odor inhibition (specificity); type: in vivo; details: cresol and test substance each diluted 100 times with propylene glycol (FIG. 8)
Experimental: as §1
In the experiment, cresol diluted 100 times with propylene glycol was used as the malodor, and florhydral diluted 100 times with propylene glycol was used as the test substance.

[4] = Sensory evaluation test of nonanoic acid odor inhibition; type: in vivo; details: test substance diluted 10 times with propylene glycol (FIG. 6)
Experimental: as §1, with “grade). […]” for “grade).”

Compound	Inhibition ratio of OR10A6 response (OR10A6)	Intensity of odor [1]	Inhibition of hexanoic acid odor (in words) [1]	Inhibition of isovaleric acid odor (in words) [2]	Inhibition of cresol odor (in words) [3]	Inhibition of nonanoic acid odor (in words) [4]
2,4,6-trimethyl-3-cyclohexene-1-carboxyaldehyde, 3,5,6-trimethyl-3-cyclohexene-1-carboxyaldehyde [Isocyclocitral]	1 (Inhibition ratio: 50% or higher)	0.67	inhibit the hexanoic acid odor	–	–	–
CC(C)c1cccc(C(C)CC=O)c1 (centres unmarked) [Florhydral, 3-(3-isopropylphenyl)-butyraldehyde]	–	1.25	markedly inhibited	the odors were also inhibited	not inhibited	the odors were also inhibited

Source: patent US9526680B2, “Method for searching for malodor control agent, malodor control agent, and malodor control method” (Kao Corporation, priority 2010, dated 2016)
